# Laboratory results as given in US11534441B2, “MAP4K1 inhibitors” (Blueprint Medicines Corporation, priority 2020, dated 2022).
# pEC50, pIC50: −log10 of the molar value.
# How the values were obtained:
# [1] = tested on: expanded CD3+ T cells; test: T cell enhancement of cytokines: IL2 measurement (HTRF) in expanded CD3+ T cells stimulated with anti-CD3/anti-CD28; format: cell-based, human; conditions: IL-2 measurement
# Description: T cells are isolated from whole blood of healthy donors by immunomagnetic negative selection following manufacture's protocol (StemCell Technologies, human T cell isolation kit). Purity of isolated cells is assessed by flow cytometry and yields 95-98% CD3^+ T cells. For expansion of T cells, 1×10^6 cells/well are plated in serum free cell expansion media (ThermoFisher) containing 30 U of recombinant human IL2 (R&D) and stimulated with 25 ul of CD3/CD28 beads (Invitrogen) in 24 well plates for 3-4 days. T cells are then expanded in 175 cm flasks and maintained at a cell density of 1 to 2.5×10^6 cells/ml days by addition of ⅔ of fresh media every 2-3 days. After 10-14 days, cells are frozen in BamBanker freezing media (Thermo) and stored in liquid nitrogen.
# For IL2 measurement, expanded CD3^+ T cells are dispensed at 100K cells/well (cultured in X-VIVO 10 Serum-free media) and are stimulated with plate-bound anti-CD3 and soluble anti-CD28 in the presence of vehicle or compound of the disclosure at various concentrations for 24 h. As outlined in the manufacturer's protocol (Cisbio), 16 μL of conditioned media is transferred to a white 384-well low volume plate. Following a 24 h incubation with the anti-IL2 antibodies, the homogenous time resolved fluorescence (HTRF) is measured.
# [2] = molecular target: MAP4K1 (HPK1) (Homo sapiens (Human), UniProt Q92918); test: MAP4K1 (HPK1) biochemical enzymatic activity, electrophoretic mobility shift (EZReader 2), ATP at APPKM (26 μM)
# Outline: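 Phosphorylated and unphosphorylated peptide were separated electrophoretically, and the product/substrate peak ratio served as readout. Reactions held 0.1-15 nM HPK1, 1.5 μM fluorescent peptide and 26 μM ATP (apparent Km) in pH 7.5 HEPES buffer with MgCl2 and DTT. Compounds were tested as 4-fold, 10-point dilutions in 1% DMSO for 60-180 min at 25° C, then quenched with EDTA.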
# [3] = Homo sapiens, T-cell, class designation
# [4] = Homo sapiens, T-cell, numeric value
# MAP4K1 (HPK1), sequence (Q92918 whole entry): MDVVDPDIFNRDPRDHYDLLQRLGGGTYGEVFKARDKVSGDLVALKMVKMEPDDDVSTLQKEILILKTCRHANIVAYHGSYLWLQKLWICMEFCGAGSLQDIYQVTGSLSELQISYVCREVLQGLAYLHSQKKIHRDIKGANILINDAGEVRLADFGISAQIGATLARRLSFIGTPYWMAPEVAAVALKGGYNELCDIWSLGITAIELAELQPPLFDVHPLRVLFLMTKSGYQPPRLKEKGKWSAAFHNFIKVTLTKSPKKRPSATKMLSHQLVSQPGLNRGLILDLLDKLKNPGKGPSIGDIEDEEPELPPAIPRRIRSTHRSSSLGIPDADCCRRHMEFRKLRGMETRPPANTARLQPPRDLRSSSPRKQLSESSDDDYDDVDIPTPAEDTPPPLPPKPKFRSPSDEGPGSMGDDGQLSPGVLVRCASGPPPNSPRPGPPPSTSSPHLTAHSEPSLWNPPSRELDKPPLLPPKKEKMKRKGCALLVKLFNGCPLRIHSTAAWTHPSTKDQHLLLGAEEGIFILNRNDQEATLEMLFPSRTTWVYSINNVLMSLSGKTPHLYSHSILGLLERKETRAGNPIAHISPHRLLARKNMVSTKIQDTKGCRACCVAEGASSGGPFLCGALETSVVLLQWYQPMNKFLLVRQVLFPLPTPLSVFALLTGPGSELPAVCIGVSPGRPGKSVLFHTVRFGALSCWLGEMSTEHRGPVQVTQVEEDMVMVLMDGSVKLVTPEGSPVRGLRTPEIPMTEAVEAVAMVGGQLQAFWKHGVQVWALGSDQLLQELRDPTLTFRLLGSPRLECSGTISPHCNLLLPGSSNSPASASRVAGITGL
smiles,measurement,setting,value
"C[C@H]1COC(=O)c2ccc(Nc3cc4c([C@](C)(N)C5CC5)cnc(OC5CC5)c4cn3)nc21 (single isomer, unassigned) [Compound 117]",pEC50,[1]; [3],> 7.46
same,pEC50,[1]; [4],7.80
same,pIC50,[2]; class designation,> 9.52
"C[C@@H]1COC(=O)c2ccc(Nc3cc4c([C@](C)(N)C5CC5)cnc(OC5CC5)c4cn3)nc21 (single isomer, unassigned) [Compound 118]",pEC50,[1]; class designation,< 7.26
same,pEC50,[1]; numeric value,7.09
same,pIC50,[2]; class designation,8.00 to 8.96
same,pIC50,[2]; numeric value,8.89
"CC[C@@](C)(N)c1cnc(OC2CC2)c2cnc(Nc3ccc4c(n3)CC(C)(C)OC4=O)cc12 (single isomer, unassigned) [Compound 132]",pEC50,[1]; class designation,> 7.46
same,pEC50,[1]; numeric value,7.89
same,pIC50,[2]; class designation,> 9.52
same,pIC50,[2]; numeric value,9.74
"C[C@](N)(c1cnc(OC2CC2)c2cnc(Nc3ccc4c(n3)C3(CC3)COC4=O)cc12)C1CC1 (single isomer, unassigned) [Compound 146]",pEC50,[1]; [3],< 7.26
same,pEC50,[1]; [4],7.22
same,pIC50,[2]; numeric value,9.60
"C[C@](N)(c1cnc(OC2CC2)c2cnc(Nc3ccc4c(n3)CC3(CC3)OC4=O)cc12)C1CC1 (single isomer, unassigned) [Compound 147]",pEC50,[1]; [3],7.35 to 7.45
same,pEC50,[1]; [4],7.34
same,pIC50,[2]; numeric value,9.57
"CC1(C)COC(=O)c2ccc(Nc3cc4c([C@](C)(N)C5CC5)cnc(OC5CC5)c4cn3)nc21 (single isomer, unassigned) [Compound 151]",pEC50,[1]; [3],> 7.46
same,pEC50,[1]; [4],7.56
same,pIC50,[2]; numeric value,9.66
"CC[C@]1(C)OC(=O)c2ccc(Nc3cc4c([C@](C)(N)C5CC5)cnc(OC5CC5)c4cn3)nc21 (single isomer, unassigned) [Compound 152]",pEC50,[1]; class designation,< 7.26
same,pEC50,[1]; numeric value,7.26
same,pIC50,[2]; class designation,9.00 to 9.51
same,pIC50,[2]; numeric value,9.38
"C[C@@H]1c2nc(Nc3cc4c([C@](C)(N)C5CC5)cnc(OC5CC5)c4cn3)ccc2C(=O)O[C@@H]1C (single isomer, unassigned) [Compound 154]",pEC50,[1]; class designation,> 7.46
same,pEC50,[1]; numeric value,7.96
same,pIC50,[2]; class designation,> 9.52
same,pIC50,[2]; numeric value,10.10
"C[C@@H]1OC(=O)c2ccc(Nc3cc4c([C@](C)(N)C5CC5)cnc(OC5CC5)c4cn3)nc2[C@@H]1C (single isomer, unassigned) [Compound 155]",pEC50,[1]; class designation,< 7.26
same,pEC50,[1]; numeric value,7.05
same,pIC50,[2]; class designation,9.00 to 9.51
same,pIC50,[2]; numeric value,9.01
"C[C@H]1OC(=O)c2ccc(Nc3cc4c([C@](C)(N)C5CC5)cnc(OC5CC5)c4cn3)nc2C12CC2 (single isomer, unassigned) [Compound 167]",pEC50,[1]; class designation,> 7.46
same,pEC50,[1]; numeric value,8.03
same,pIC50,[2]; class designation,> 9.52
same,pIC50,[2]; numeric value,10.30
"C[C@H]1OC(=O)c2ccc(Nc3cc4c([C@](C)(N)C5CC5)cnc(OC5CC5)c4cn3)nc2C1(C)C (single isomer, unassigned) [Compound 171]",pEC50,[1]; class designation,> 7.46
same,pEC50,[1]; numeric value,7.56
same,pIC50,[2]; class designation,> 9.52
same,pIC50,[2]; numeric value,10.15
"CC[C@@](C)(N)c1cnc(OCC(F)(F)F)c2cnc(Nc3ccc4c(n3)[C@@H](C)[C@H](C)OC4=O)cc12 (single isomer, unassigned) [Compound 181]",pEC50,[1]; [3],> 7.46
same,pEC50,[1]; [4],7.82
same,pIC50,[2]; class designation,> 9.52
"CC[C@@](C)(N)c1cnc(OCC(F)(F)F)c2cnc(Nc3ccc4c(n3)[C@@H](C)[C@H](C)OC4=O)cc12 (single isomer, unassigned) [Compound 182]",pEC50,[1]; class designation,7.35 to 7.45
same,pEC50,[1]; numeric value,7.41
same,pIC50,[2]; class designation,8.00 to 8.96
same,pIC50,[2]; numeric value,8.53
"COCC(C)(N)c1cnc(OC2CC2)c2cnc(Nc3ccc4c(n3)[C@@H](C)[C@H](C)OC4=O)cc12 (single isomer, unassigned) [Compound 184, (7S,8R)-2-((5-((R)-2-Amino-1-methoxypropan-2-yl)-8-cyclopropoxy-2,7-naphthyridin-3-yl)amino)-7,8-dimethyl-7,8-dihydro-5H-pyrano[4,3-b]pyridin-5-one or (7S,8R)-2-((5-((S)-2-amino-1-methoxypropan-2-yl)-8-cyclopropoxy-2,7-naphthyridin-3-yl)amino)-7,8-dimethyl-7,8-dihydro-5H-pyrano[4,3-b]pyridin-5-one]",pEC50,[1]; class designation,> 7.46
same,pEC50,[1]; numeric value,7.48
same,pIC50,[2]; class designation,> 9.52
same,pIC50,[2]; numeric value,9.57
"COc1ncc(C(C)(C)N)c2cc(Nc3ccnc(C(C)(C)C)n3)ncc12 [Compound 3, 5-(2-Aminopropan-2-yl)-N-(2-(tert-butyl)pyrimidin-4-yl)-8-methoxy-2,7-naphthyridin-3-amine]",pEC50,[1]; [3],< 7.26
same,pEC50,[1]; [4],6.97
same,pIC50,[2]; numeric value,9.44
"COc1ccc(C(C)(C)N)c2cc(Nc3ccnc(C(C)(C)F)n3)ncc12 [Compound 5, 5-(2-Aminopropan-2-yl)-N-(2-(2-fluoropropan-2-yl)pyrimidin-4-yl)-8-methoxyisoquinolin-3-amine]",pEC50,[1]; [3],7.35 to 7.45
same,pEC50,[1]; [4],7.43
same,pIC50,[2]; class designation,9.00 to 9.51
same,pIC50,[2]; numeric value,9.43
COc1ncc(C(C)(C)N)c2cc(Nc3ccnc(C(C)(C)F)n3)ncc12 [Compound 7],pEC50,[1]; [3],> 7.46
same,pEC50,[1]; [4],7.66
same,pIC50,[2]; class designation,9.00 to 9.51
same,pIC50,[2]; numeric value,9.04
COc1ncc(C(C)(C)N)c2cc(Nc3ccc4c(n3)CCNC4=O)ncc12 [Compound 11],pEC50,[1]; [3],> 7.46
same,pEC50,[1]; [4],7.96
same,pIC50,[2]; class designation,9.00 to 9.51
same,pIC50,[2]; numeric value,9.48
COc1ncc(C(C)(C)N)c2cc(Nc3ccc4c(n3)CCOC4=O)ncc12 [Compound 12],pEC50,[1]; [3],> 7.46
same,pEC50,[1]; [4],7.96
same,pIC50,[2]; class designation,9.00 to 9.51
same,pIC50,[2]; numeric value,9.51
CC[C@H](C)n1nc(Nc2cc3c(C(C)(C)N)cnc(OC)c3cn2)ccc1=O [Compound 14],pEC50,[1]; class designation,7.26 to 7.35
same,pEC50,[1]; numeric value,7.29
same,pIC50,[2]; class designation,9.00 to 9.51
same,pIC50,[2]; numeric value,9.19
CC[C@@H](C)n1nc(Nc2cc3c(C(C)(C)N)cnc(OC)c3cn2)ccc1=O [Compound 15],pEC50,[1]; [3],> 7.46
same,pEC50,[1]; [4],7.51
same,pIC50,[2]; class designation,9.00 to 9.51
CC[C@H](C)c1nc(Nc2cc3c(C(C)(C)N)cnc(OC)c3cn2)ccc1C#N [Compound 19],pEC50,[1]; class designation,> 7.46
same,pEC50,[1]; numeric value,7.56
same,pIC50,[2]; class designation,> 9.52
same,pIC50,[2]; numeric value,9.52
CC[C@H](C)c1nc(Nc2cc3c(C(C)(C)N)cnc(OC)c3cn2)cnc1C#N [Compound 20],pEC50,[1]; class designation,7.26 to 7.35
same,pEC50,[1]; numeric value,7.29
same,pIC50,[2]; class designation,9.00 to 9.51
same,pIC50,[2]; numeric value,9.14
CC[C@@H](C)c1nc(Nc2cc3c(C(C)(C)N)cnc(OC)c3cn2)cnc1C#N [Compound 21],pEC50,[1]; class designation,7.26 to 7.35
same,pEC50,[1]; numeric value,7.31
same,pIC50,[2]; class designation,9.00 to 9.51
same,pIC50,[2]; numeric value,9.07
COc1ncc(C(C)(C)N)c2cc(Nc3ccc4c(n3)C(C)(C)OC4=O)ncc12 [Compound 26],pEC50,[1]; [3],> 7.46
same,pEC50,[1]; [4],7.85
same,pIC50,[2]; class designation,9.00 to 9.51
same,pIC50,[2]; numeric value,9.26
COc1ncc(C(C)(C)N)c2cc(Nc3ccc(C#N)c(C(C)(C)F)n3)ncc12 [Compound 28],pEC50,[1]; [3],> 7.46
same,pEC50,[1]; [4],7.50
same,pIC50,[2]; class designation,9.00 to 9.51
same,pIC50,[2]; numeric value,9.17
COc1ncc(C(C)(C)N)c2cc(Nc3ccc4c(n3)CC3(CC3)OC4=O)ncc12 [Compound 33],pEC50,[1]; [3],> 7.46
same,pEC50,[1]; [4],8.03
same,pIC50,[2]; class designation,> 9.52
same,pIC50,[2]; numeric value,9.89
"COc1ncc(C(C)(C)N)c2cc(Nc3ccc4c(n3)CC(C)(C)CC4=O)ncc12 [Compound 34, 2-((5-(2-Aminopropan-2-yl)-8-methoxy-2,7-naphthyridin-3-yl)amino)-7,7-dimethyl-7,8-dihydroquinolin-5 (6H)-one]",pEC50,[1]; [3],7.35 to 7.45
same,pEC50,[1]; [4],7.34
same,pIC50,[2]; class designation,> 9.52
same,pIC50,[2]; numeric value,9.62
CNc1ncc(C(C)(C)N)c2cc(Nc3ccc4c(n3)CC(C)(C)OC4=O)ncc12 [Compound 35],pEC50,[1]; class designation,> 7.46
same,pEC50,[1]; numeric value,7.63
same,pIC50,[2]; class designation,9.00 to 9.51
same,pIC50,[2]; numeric value,9.39
